Assay results reported in patent publication US7112586B2, “Substituted diamine derivatives useful as motilin antagonists” (Ortho-McNeil Pharmaceutical, Inc., priority 2000, dated 2006).

Target: T1, Motilin Receptor (Oryctolagus cuniculus, UniProt G1T803)
T1 construct: The muscle tissue was homogenized in 10 volumes of 50 mM Tris-Cl; from tissue; host or cells: rabbit colon smooth muscle, crude membrane homogenate
Assay: Motilin receptor binding, rabbit colon membranes, 125I porcine motilin
Set-up: Rabbit Colon % Inh / inhibition / % Inh (Rabbit colon): dose or concentration left out as unconfirmed
Settings: rabbit colon membranes; for inhibition: read-out: Rabbit Colon % Inh; for IC50: read-out: Rabbit Colon IC50

T1 sequence (G1T803 1-400): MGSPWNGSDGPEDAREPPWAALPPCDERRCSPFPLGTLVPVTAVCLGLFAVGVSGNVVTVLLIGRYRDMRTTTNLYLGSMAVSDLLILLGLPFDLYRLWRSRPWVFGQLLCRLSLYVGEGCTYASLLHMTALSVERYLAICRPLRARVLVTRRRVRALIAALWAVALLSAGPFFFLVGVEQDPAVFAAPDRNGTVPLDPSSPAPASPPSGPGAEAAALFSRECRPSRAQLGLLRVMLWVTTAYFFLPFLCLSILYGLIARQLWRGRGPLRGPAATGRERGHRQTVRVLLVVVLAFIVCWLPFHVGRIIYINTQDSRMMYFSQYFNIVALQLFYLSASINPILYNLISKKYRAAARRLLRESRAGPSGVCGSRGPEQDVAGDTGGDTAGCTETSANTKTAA

SMILES	Rabbit Colon % Inh	further results
COc1cccc(CN(Cc2cccc(Cl)c2)C(=O)CCCC(=O)N(Cc2ccc(F)cc2)c2cccc(OCCN3CCOCC3)c2)c1 [compound 206]		inhibition: 60%; IC50: 770 nM
O=C(Nc1ccccc1)N(CC1CCCC(N(Cc2ccccc2)C(=O)Nc2ccccc2)C1)c1cccc(OCCN2CCOCC2)c1 (centres unmarked) [compound 40]		inhibition: 11%
CCN(Cc1ccccc1)C(=O)CCCN(C(=O)c1ccc(C)cc1)c1cccc(OCCN2CCOCC2)c1 [compound 10]	29%	
CCN(CC)CCOc1ccc(N(Cc2ccc(F)cc2)C(=O)CCCC(=O)N(CCc2ccccc2)Cc2ccccc2)cc1 [compound 195]	62%	
O=C(Nc1ccccc1)N(CC1CCCC(N(Cc2cc(Cl)cc(Cl)c2)C(=O)C(Cl)(Cl)Cl)C1)c1cccc(OCCN2CCOCC2)c1 (centres unmarked) [compound 60]		inhibition: 65%; IC50: 660 nM
O=C(CCC(=O)N(Cc1ccc(F)cc1)c1cccc(OCCN2CCOCC2)c1)N(CCc1ccccc1)Cc1ccccc1 [compound 128]		inhibition: 75%; IC50: 230 nM
O=C([C@H](Cc1ccccc1)N(Cc1ccccc1)C(=O)CCc1ccccc1)N(Cc1ccc(F)cc1)c1cccc(OCCN2CCOCC2)c1 [compound 152]	0%	
O=C(CCCC(=O)N(Cc1ccc(F)cc1)c1cccc(OCCN2CCCC2)c1)N(CCc1ccccc1)Cc1cccc(C(F)(F)F)c1 [compound 200]		inhibition: 92%; IC50: 41 nM
O=C(c1ccc(F)cc1)N(CC1CCCC(N2C(=O)c3c(Cl)ccc(Cl)c3C2=O)C1)c1cccc(OCCN2CCOCC2)c1 (centres unmarked) [compound 263]	11%	
O=C(c1ccc(F)cc1)N(CC1CCCC(N(Cc2cccc(Cl)c2)C(=O)C(Cl)(Cl)Cl)C1)c1cccc(OCCN2CCOCC2)c1 (centres unmarked) [compound 111]		inhibition: 72%; IC50: 880 nM
O=C(c1ccc(F)cc1)N(CC1CCCC(N(Cc2cccc([N+](=O)[O-])c2)C(=O)C(Cl)(Cl)Cl)C1)c1cccc(OCCN2CCCC2)c1 (centres unmarked) [compound 211]		inhibition: 100%; IC50: 14 nM
CCN(Cc1ccccc1)C(=O)CCCN(c1cccc(OCCN2CCOCC2)c1)S(=O)(=O)c1ccc(C)cc1 [compound 9]	27%	
O=C1CCCN1CCOc1cccc(N(Cc2ccc(F)cc2)C(=O)CCCC(=O)N(CCc2ccccc2)Cc2ccccc2)c1 [compound 176]	32%	
CN(Cc1ccccc1)C(=O)CCCN(C(=O)Nc1ccccc1)c1cccc(OCCN2CCOCC2)c1 [compound 15]	21%	
CC(C)(C)CN(Cc1cccc(Cl)c1)C(=O)c1cccc(CN(C(=O)c2ccc(F)cc2)c2cccc(OCCN3CCOCC3)c2)c1 [compound 141]	21%	
O=C(c1ccc(F)cc1)N(CC1CCCC(N(Cc2ccccc2)C(=O)c2ccco2)C1)c1cccc(OCCN2CCOCC2)c1 (centres unmarked) [compound 124]		inhibition: 70%; IC50: 904 nM
O=C(CCCC(=O)N(Cc1ccc(F)cc1)c1cccc(OCCN2CCOCC2)c1)N(CCc1ccccc1)Cc1cccc([N+](=O)[O-])c1 [compound 205]		inhibition: 76%; IC50: 100 nM

SMILES	Rabbit Colon % Inh	further results
O=C(Nc1ccccc1)N(c1cccc(OCCN2CCOCC2)c1)C1CCC(CN(Cc2cccc(Cl)c2)C(=O)C(Cl)(Cl)Cl)C1 (centres unmarked) [compound 39]		inhibition: 4%
O=C(c1ccc(F)cc1)N(CC1CCCC(N(Cc2cccc(Cl)c2)C(=O)C(F)(F)F)C1)c1cccc(OCCN2CCOCC2)c1 (centres unmarked) [compound 108]		inhibition: 70%; IC50: 815 nM
CC(C)(C)c1ccc2c(c1)C(=O)N(C1CCCC(CN(C(=O)c3ccc(F)cc3)c3cccc(OCCN4CCOCC4)c3)C1)C2=O (centres unmarked) [compound 250]	0%	
O=C(Nc1ccccc1)N(CC1CCCC(N(Cc2ccccn2)C(=O)C(Cl)(Cl)Cl)C1)c1cccc(OCCN2CCOCC2)c1 (centres unmarked) [compound 68]		inhibition: 73%; IC50: 660 nM
Cc1c(OCCN2CCOCC2)cccc1N(Cc1ccc(F)cc1)C(=O)CCCC(=O)N(CCc1ccccc1)Cc1ccccc1 [compound 234]		inhibition: 86%; IC50: 218 nM
O=C(Nc1ccccc1)N(CC1CCCC(NCc2ccccc2)C1)c1cccc(OCCN2CCOCC2)c1 (centres unmarked) [compound 84]		% Inh (Rabbit colon) (125I porcine motilin binding): 12%
COc1cccc(C(=O)N(Cc2cccc([N+](=O)[O-])c2)C2CCC(CN(C(=O)Nc3ccccc3)c3cccc(OCCN4CCOCC4)c3)CC2)c1 (centres unmarked) [compound 186]	0%	
O=C(Nc1ccccc1)NC1CCCC(CN(C(=O)Nc2ccccc2)c2cccc(OCCN3CCOCC3)c2)C1 (centres unmarked) [compound 69]	0%	
O=C(Nc1ccccc1)N(CC1CCCC(N(Cc2ccccc2)C(=O)c2ccco2)C1)c1cccc(OCCN2CCOCC2)c1 (centres unmarked) [compound 48]		inhibition: 67%; IC50: 656 nM
O=C([C@H](Cc1ccccc1)NS(=O)(=O)c1ccc(-c2ccccc2)cc1)N(Cc1ccc(F)cc1)c1cccc(OCCN2CCOCC2)c1 [compound 135]	8%	
CC1(C)CC(=O)N(C2CCCC(CN(C(=O)c3ccc(F)cc3)c3cccc(OCCN4CCOCC4)c3)C2)C(=O)C1 (centres unmarked) [compound 258]	34%	
Cc1ccc(S(=O)(=O)N(CCCC(=O)N(C)Cc2ccccc2)c2cccc(OCCN3CCOCC3)c2)cc1 [compound 16]	21%	
O=C([C@H](Cc1ccccc1)N(Cc1ccccc1)C(=O)C(Cl)(Cl)Cl)N(Cc1ccc(F)cc1)c1cccc(OCCN2CCOCC2)c1 [compound 151]	1%	
O=C(CCCC(=O)N(Cc1ccc(F)cc1)c1ccc(OCCCN2CCCCC2)cc1)N(CCc1ccccc1)Cc1ccccc1 [compound 193]	7%	
O=C(CCCC(=O)N(Cc1ccc(F)cc1)c1ccc(OCCN2CCOCC2)cc1)N(CCc1ccccc1)Cc1ccccc1 [compound 192]	15%	
CCN(Cc1ccccc1)C(=O)CCCCN(c1cccc(OCCN2CCOCC2)c1)S(=O)(=O)c1ccc(C)cc1 [compound 12]	4%	

Continued, in another order:

Rabbit Colon % Inh	SMILES	further results
36%	O=C(c1ccc(F)cc1)N(CC1CCCC(N(Cc2cccc(Cl)c2)C(=O)CCC2CCCC2)C1)c1cccc(OCCN2CCOCC2)c1 (centres unmarked) [compound 242]	
58%	O=C(c1ccc(F)cc1)N(CC1CCCC(N(Cc2ccccc2)C(=O)c2ccc(-c3ccccc3)cc2)C1)c1cccc(OCCN2CCOCC2)c1 (centres unmarked) [compound 118]	
19%	O=C(NC1CCCC(CN(C(=O)Nc2ccccc2)c2cccc(OCCN3CCOCC3)c2)C1)c1ccc(-c2ccccc2)cc1 (centres unmarked) [compound 75]	
0%	O=C(Nc1ccccc1)N(CC1CCCC(N(Cc2ccccc2)C(=O)c2cc(C(F)(F)F)cc(C(F)(F)F)c2)C1)c1cccc(OCCN2CCOCC2)c1 (centres unmarked) [compound 82]	
38%	O=C(Nc1ccccc1)N(CC1CCCC(N(Cc2cccc(F)c2)C(=O)C(Cl)(Cl)Cl)C1)c1cccc(OCCN2CCOCC2)c1 (centres unmarked) [compound 58]	
37%	O=C(Nc1ccccc1)N(CC1CCCC(N(Cc2cccc(Cl)c2)C(=O)c2cc(C(F)(F)F)cc(C(F)(F)F)c2)C1)c1cccc(OCCN2CCOCC2)c1 (centres unmarked) [compound 49]	
42%	O=C(Nc1ccccc1)N(CC1CCCC(N(Cc2cccc(Cl)c2)C(=O)c2ccc3ccccc3c2)C1)c1cccc(OCCN2CCOCC2)c1 (centres unmarked) [compound 54]	
30%	CC(=O)Oc1ccc2c(c1)C(=O)N(C1CCCC(CN(C(=O)c3ccc(F)cc3)c3cccc(OCCN4CCOCC4)c3)C1)C2=O (centres unmarked) [compound 260]	
51%	O=C(c1ccc(F)cc1)N(CC1CCCC(N(Cc2ccc(Cl)cc2)C(=O)C(Cl)(Cl)Cl)C1)c1cccc(OCCN2CCOCC2)c1 (centres unmarked) [compound 95]	
23%	O=C(Nc1ccccc1)N(CC1CCCC(N(Cc2cccc(Cl)c2)C(=O)C(Cl)(Cl)Cl)C1)c1cccc(OCCN2CCOCC2)c1 (centres unmarked) [compound 47]	
18%	O=C(c1ccc(F)cc1)N(CC1CCCC(N2C(=O)C3CC3C2=O)C1)c1cccc(OCCN2CCOCC2)c1 (centres unmarked) [compound 262]	
50%	CC(C)(C)C(=O)N(Cc1ccccc1)C1CCCC(CN(C(=O)Nc2ccccc2)c2cccc(OCCN3CCOCC3)c2)C1 (centres unmarked) [compound 42]	
59%	O=C(c1ccc(F)cc1)N(CC1CCCC(N(Cc2cccc(Cl)c2)C(=O)C(c2ccccc2)c2ccccc2)C1)c1cccc(OCCN2CCOCC2)c1 (centres unmarked) [compound 101]	
10%	O=C(CCc1ccccc1)NC1CCCC(CN(C(=O)Nc2ccccc2)c2cccc(OCCN3CCOCC3)c2)C1 (centres unmarked) [compound 78]	
30%	Cc1ccc2c(c1)C(=O)N(C1CCCC(CN(C(=O)c3ccc(F)cc3)c3cccc(OCCN4CCOCC4)c3)C1)C2=O (centres unmarked) [compound 253]	
30%	O=C(c1ccc(F)cc1)N(CC1CCCC(N(Cc2cccc(Cl)c2)C(=O)CCc2ccccc2)C1)c1cccc(OCCN2CCOCC2)c1 (centres unmarked) [compound 104]	
56%	COc1cccc(CN(C(=O)C(Cl)(Cl)Cl)C2CCCC(CN(C(=O)c3ccc(F)cc3)c3cccc(OCCN4CCOCC4)c3)C2)c1 (centres unmarked) [compound 97]	
19%	O=C(c1ccc(F)cc1)N(CCCC(=O)N1CCc2ccccc2C1c1ccccc1)c1cccc(OCCN2CCOCC2)c1 (centres unmarked) [compound 148]	
17%	O=C(c1ccc(F)cc1)N(CC1CCCC(N2C(=O)c3ccc(Br)cc3C2=O)C1)c1cccc(OCCN2CCOCC2)c1 (centres unmarked) [compound 259]	
2%	O=C(c1ccc(F)cc1)N(CC1CCCC(N(Cc2cccc(Cl)c2)C(=O)c2ccc3ccccc3c2)C1)c1cccc(OCCN2CCOCC2)c1 (centres unmarked) [compound 103]	
